Measured values: ChEMBL document CHEMBL3588781, “HPLC-NMR and HPLC-MS Profiling and Bioassay-Guided Identification of Secondary Metabolites from the Australian Plant Haemodorum spicatum” (2015)
Calls of active or inactive are those of the source. The rule behind the calls is not given here.

Key:
Staphylococcus aureus [1] = experiment: Antimicrobial activity against Staphylococcus aureus ATCC 25923 assessed as microbial growth inhibition at 1 mg/ml incubated overnight at 37 degC; assay type: functional; details: for zone of inhibition at 1000 µg/mL: read-out: IZ
Pseudomonas aeruginosa = experiment: Antimicrobial activity against Pseudomonas aeruginosa ATCC 27853 assessed as microbial growth inhibition at 1 mg/ml incubated overnight at 37 degC; assay type: functional; details: for zone of inhibition at 1000 µg/mL: read-out: IZ
Candida albicans = experiment: Antimicrobial activity against Candida albicans ATCC 10231 assessed as microbial growth inhibition at 1 mg/ml incubated overnight at 37 degC; assay type: functional, organism-based
Streptococcus pyogenes = experiment: Antimicrobial activity against Streptococcus pyogenes 345/1 assessed as microbial growth inhibition at 1 mg/ml incubated overnight at 37 degC; assay type: functional; details: for zone of inhibition at 1000 µg/mL: read-out: IZ
Staphylococcus aureus [2] = experiment: Antimicrobial activity against methicillin-resistant Staphylococcus aureus 344/2-32 assessed as microbial growth inhibition at 1 mg/ml incubated overnight at 37 degC; assay type: functional; details: for zone of inhibition at 1000 µg/mL: read-out: IZ
Escherichia coli = experiment: Antimicrobial activity against Escherichia coli ATCC 25922 assessed as microbial growth inhibition at 1 mg/ml incubated overnight at 37 degC; assay type: functional; details: for zone of inhibition at 1000 µg/mL: read-out: IZ

SMILES | inhibition zone (IZ) (Staphylococcus aureus [1]) | zone of inhibition at 1000 µg/mL (Pseudomonas aeruginosa) [mm] | inhibition zone (IZ) (Candida albicans) | zone of inhibition at 1000 µg/mL (Streptococcus pyogenes) [mm] | inhibition zone (IZ) (Staphylococcus aureus [2]) | zone of inhibition at 1000 µg/mL (Escherichia coli) [mm] | zone of inhibition at 1000 µg/mL (Staphylococcus aureus [1]) [mm] | inhibition zone (IZ) (Escherichia coli) | zone of inhibition at 1000 µg/mL (Staphylococcus aureus [2]) [mm] | inhibition zone (IZ) (Pseudomonas aeruginosa) | inhibition zone (IZ) (Streptococcus pyogenes)
COc1cc2cc(O)c3oc4ccccc4c4ccc(c1=O)c2c34 | inactive | 5 | inactive | 2 | inactive | 1 |  |  |  |  | 
COC(=O)Nc1nc2ccccc2[nH]1 |  |  | inactive |  |  |  |  |  |  |  | 
COC1=Cc2cc(O)c(OC)c3ccc(-c4ccccc4)c(c23)C1=O |  | 1 | inactive | 1 | inactive | 1 | 1 |  |  |  | 
COc1cc2cc(OC)c3oc4ccccc4c4ccc(c1=O)c2c34 | inactive | 4 | inactive | 2 | inactive |  |  | inactive |  |  | 
COC1=Cc2cc(OC)c(OC)c3ccc(-c4ccccc4)c(c23)C1=O | inactive | 1 | inactive | 1 |  | 1 |  |  | 1 |  | 
COC1OC(=O)c2ccc(-c3ccccc3)c3c(O)c(O)cc1c23 (stereo unspecified) | inactive | 1 | inactive | 1 | inactive | 1 |  |  |  |  | 
COC1=Cc2ccc(OC)c3ccc(-c4ccccc4)c(c23)C1=O | inactive | 3 | inactive | 1 | inactive | 1 |  |  |  |  | 
COC1=Cc2cc(=O)oc3ccc(-c4ccccc4)c(c23)C1=O | inactive |  | inactive |  | inactive | 1 |  |  |  | inactive | inactive
COc1cc(OC)c2ccc(-c3ccccc3)c3c2c1C=C(O)C3=O |  | 5 | inactive | 1 |  | 1 | 1 |  | 1 |  | 
COc1cc2ccc(=O)c3ccc4c5ccccc5oc1c4c23 |  | 3 | inactive | 3 |  |  | 1 | inactive | 1 |  | 
CC1(C)S[C@@H]2[C@H](NC(=O)[C@H](N)c3ccccc3)C(=O)N2[C@H]1C(=O)O [AMPICILLIN] |  | 2 |  | 20 |  |  | 15 | inactive | 3 |  | 
O=c1ccc2cc(O)c3oc4ccccc4c4ccc1c2c34 | inactive | 3 | inactive | 1 | inactive |  |  | inactive |  |  | 
